Results: PubChem BioAssay AID2060498 (Molecular Pharmacology Branch, DTP, NCI, 2025)

Test system: 171881-019-R-J1-PDC tumor spheroids, viability
Experiment: Anticancer human tumor 171881-019-R-J1-PDC patient-derived invasive breast carcinoma cell line growth inhibition [GQUAD]
Details: spheroids with HUVEC and MSC; for IC50: curve of first compound; for viability, T/C: stronger effect = lower value; active = viability on the fitted dose curve at most 10% of control; inactive = the rest
Procedure, shortened: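 Viability of tumor cells grown as complex spheroids with endothelial and stromal cells, exposed to drug combinations. Top concentration at or near clinical Cmax (else 10 microM), diluted in half-log increments.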

[1] = second compound 0.0316 µM, first compound 0.0316 µM
[2] = second compound 0.0316 µM, first compound 0.1 µM
[3] = second compound 0.0316 µM, first compound 0.316 µM
[4] = second compound 0.0316 µM, first compound 1 µM
[5] = second compound 0.0316 µM, first compound 3.16 µM
[6] = second compound 0.0316 µM, first compound 10 µM
[7] = second compound 0.1 µM, first compound 0.0316 µM
[8] = second compound 0.1 µM, first compound 0.1 µM
[9] = second compound 0.1 µM, first compound 0.316 µM
[10] = second compound 0.1 µM, first compound 1 µM
[11] = second compound 0.1 µM, first compound 3.16 µM
[12] = second compound 0.1 µM, first compound 10 µM
[13] = second compound 0.316 µM, first compound 0.0316 µM
[14] = second compound 0.316 µM, first compound 0.1 µM
[15] = second compound 0.316 µM, first compound 0.316 µM
[16] = second compound 0.316 µM, first compound 1 µM
[17] = second compound 0.316 µM, first compound 3.16 µM
[18] = second compound 0.316 µM, first compound 10 µM
[19] = second compound 1 µM, first compound 0.0316 µM
[20] = second compound 1 µM, first compound 0.1 µM
[21] = second compound 1 µM, first compound 0.316 µM
[22] = second compound 1 µM, first compound 1 µM
[23] = second compound 1 µM, first compound 3.16 µM
[24] = second compound 1 µM, first compound 10 µM
[25] = second compound 3.16 µM, first compound 0.0316 µM
[26] = second compound 3.16 µM, first compound 0.1 µM
[27] = second compound 3.16 µM, first compound 0.316 µM
[28] = second compound 3.16 µM, first compound 1 µM
[29] = second compound 3.16 µM, first compound 3.16 µM
[30] = second compound 3.16 µM, first compound 10 µM
[31] = second compound 10 µM, first compound 0.0316 µM
[32] = second compound 10 µM, first compound 0.1 µM
[33] = second compound 10 µM, first compound 0.316 µM
[34] = second compound 10 µM, first compound 1 µM
[35] = second compound 10 µM, first compound 3.16 µM
[36] = second compound 10 µM, first compound 10 µM
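Throughout, for viability, T/C: 100% = DMSO vehicle control viability.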

C#Cc1c(F)ccc2cc(O)cc(-c3ncc4c(N5CC6CCC(C5)N6)nc(OCC56CCCN5CC(F)C6)nc4c3F)c12 (stereo not drawn) + CN(C)c1ccc(Nc2c3ccc(NC(=O)CCN4CCCC4)cc3nc3cc(NC(=O)CCN4CCCC4)ccc23)cc1
< 31.6 nM: IC50 (second compound 0.316 µM) | IC50 (second compound 1 µM) | IC50 (second compound 3.16 µM) | IC50 (second compound 10 µM)
inactive: viability, T/C [1] 91.8% | viability, T/C [2] 77.2% | viability, T/C [3] 53.9% | viability, T/C [4] 41.5% | viability, T/C [5] 25.2% | viability, T/C [6] 11.2% | viability, T/C [7] 87.8% | viability, T/C [8] 68.1% | viability, T/C [9] 52% | viability, T/C [10] 35% | viability, T/C [11] 23.7% | viability, T/C [13] 43.1% | viability, T/C [14] 33.4% | viability, T/C [15] 24.5% | viability, T/C [16] 15.3%
362 nM: IC50 (second compound 0.1 µM)
active: viability, T/C [12] 8.76% | viability, T/C [17] 11.9% | viability, T/C [18] 0.81% | viability, T/C [19] 3.77% | viability, T/C [20] 3.04% | viability, T/C [21] 3.15% | viability, T/C [22] 1.14% | viability, T/C [23] 1% | viability, T/C [24] 0.07% | viability, T/C [25] 0.2% | viability, T/C [26] 0.29% | viability, T/C [27] 0.47% | viability, T/C [28] 0.22% | viability, T/C [29] 0.17% | viability, T/C [30] 0.1% | viability, T/C [31] 0.11% | viability, T/C [32] 0.1% | viability, T/C [33] 0.13% | viability, T/C [34] 0.26% | viability, T/C [35] 0.26% | viability, T/C [36] 0.13%
509 nM: IC50 (second compound 0.0316 µM)

CC(=O)O[C@H]1C(=O)[C@@]2(C)[C@H]([C@H](OC(=O)c3ccccc3)[C@]3(O)C[C@H](OC(=O)[C@H](O)[C@@H](NC(=O)c4ccccc4)c4ccccc4)C(C)=C1C3(C)C)[C@]1(OC(C)=O)CO[C@@H]1C[C@@H]2O + CN(C)c1ccc(Nc2c3ccc(NC(=O)CCN4CCCC4)cc3nc3cc(NC(=O)CCN4CCCC4)ccc23)cc1
inactive: viability, T/C [1] 43.1% | viability, T/C [2] 29.6% | viability, T/C [3] 29.1% | viability, T/C [4] 25.7% | viability, T/C [5] 27.4% | viability, T/C [6] 26.6% | viability, T/C [7] 44.7% | viability, T/C [8] 32.1% | viability, T/C [9] 26.8% | viability, T/C [10] 28.4% | viability, T/C [11] 26.4% | viability, T/C [12] 25.6% | viability, T/C [13] 25.1% | viability, T/C [14] 22.9% | viability, T/C [15] 20.6% | viability, T/C [16] 14.4% | viability, T/C [17] 19.6% | viability, T/C [18] 15.7%
< 31.6 nM: IC50 (second compound 0.0316 µM) | IC50 (second compound 0.1 µM) | IC50 (second compound 0.316 µM) | IC50 (second compound 1 µM) | IC50 (second compound 3.16 µM) | IC50 (second compound 10 µM)
active: viability, T/C [19] 3.67% | viability, T/C [20] 2.91% | viability, T/C [21] 3.17% | viability, T/C [22] 2.09% | viability, T/C [23] 2.08% | viability, T/C [24] 2.43% | viability, T/C [25] 0.23% | viability, T/C [26] 0.45% | viability, T/C [27] 0.18% | viability, T/C [28] 0.19% | viability, T/C [29] 0.24% | viability, T/C [30] 0.32% | viability, T/C [31] 0.1% | viability, T/C [32] 0.18% | viability, T/C [33] 0.1% | viability, T/C [34] 0.11% | viability, T/C [35] 0.27% | viability, T/C [36] 0.19%

CCCS(=O)(=O)Nc1ccc(F)c(C(=O)c2c[nH]c3ncc(-c4ccc(Cl)cc4)cc23)c1F + CN(C)c1ccc(Nc2c3ccc(NC(=O)CCN4CCCC4)cc3nc3cc(NC(=O)CCN4CCCC4)ccc23)cc1
active: viability, T/C [19] 5.16% | viability, T/C [20] 3.85% | viability, T/C [21] 4.58% | viability, T/C [22] 3.58% | viability, T/C [23] 3.49% | viability, T/C [24] 3.08% | viability, T/C [25] 0.35% | viability, T/C [26] 0.31% | viability, T/C [27] 0.72% | viability, T/C [28] 0.43% | viability, T/C [29] 0.5% | viability, T/C [30] 0.53% | viability, T/C [31] 0.11% | viability, T/C [32] 0.23% | viability, T/C [33] 0.24% | viability, T/C [34] 0.32% | viability, T/C [35] 0.57% | viability, T/C [36] 0.3%
< 31.6 nM: IC50 (second compound 1 µM) | IC50 (second compound 3.16 µM) | IC50 (second compound 10 µM)
9480 nM: IC50 (second compound 0.1 µM)
9820 nM: IC50 (second compound 0.0316 µM)
3260 nM: IC50 (second compound 0.316 µM)
inactive: viability, T/C [1] 99.8% | viability, T/C [2] 108% | viability, T/C [3] 102% | viability, T/C [4] 116% | viability, T/C [5] 93.7% | viability, T/C [6] 49.2% | viability, T/C [7] 76.9% | viability, T/C [8] 100% | viability, T/C [9] 84.2% | viability, T/C [10] 104% | viability, T/C [11] 94.5% | viability, T/C [12] 47.9% | viability, T/C [13] 43.8% | viability, T/C [14] 53.4% | viability, T/C [15] 55.8% | viability, T/C [16] 44.1% | viability, T/C [17] 56.2% | viability, T/C [18] 25.8%

O=c1[nH]cc(F)c(=O)[nH]1 + CN(C)c1ccc(Nc2c3ccc(NC(=O)CCN4CCCC4)cc3nc3cc(NC(=O)CCN4CCCC4)ccc23)cc1
active: viability, T/C [25] 2.15% | viability, T/C [26] 1.36% | viability, T/C [27] 2.04% | viability, T/C [28] 2.2% | viability, T/C [29] 2.62% | viability, T/C [30] 2.05% | viability, T/C [31] 0.33% | viability, T/C [32] 0.41% | viability, T/C [33] 0.8% | viability, T/C [34] 0.38% | viability, T/C [35] 0.5% | viability, T/C [36] 0.29%
> 10000 nM: IC50 (second compound 0.0316 µM) | IC50 (second compound 0.1 µM)
inactive: viability, T/C [1] 84% | viability, T/C [2] 79.3% | viability, T/C [3] 75.2% | viability, T/C [4] 69.5% | viability, T/C [5] 62.9% | viability, T/C [6] 63.9% | viability, T/C [7] 79.7% | viability, T/C [8] 72.9% | viability, T/C [9] 73.4% | viability, T/C [10] 69.1% | viability, T/C [11] 65.7% | viability, T/C [12] 61.6% | viability, T/C [13] 70.5% | viability, T/C [14] 69.4% | viability, T/C [15] 69.5% | viability, T/C [16] 55.4% | viability, T/C [17] 58% | viability, T/C [18] 49.9% | viability, T/C [19] 14.9% | viability, T/C [20] 11.1% | viability, T/C [21] 17% | viability, T/C [22] 12.6% | viability, T/C [23] 13.4% | viability, T/C [24] 15.8%
9940 nM: IC50 (second compound 0.316 µM)
< 31.6 nM: IC50 (second compound 1 µM) | IC50 (second compound 3.16 µM) | IC50 (second compound 10 µM)
